The data set concerns striatum of normal Sprague-Dawley (SD) rats. As to the kind of experiment: Cytotoxic tissue response after CED in rat striatum, T2-weighted and diffusion-weighted MRI 24 hours post treatment. The method, then: The resultant solution was infused into the striatum of normal Sprague-Dawley (SD) rats (males, 250-300 grams). T1-weighted MR images were acquired immediately post treatment to assess the extent of convection. Additionally, T2-weighted and diffusion-weighted MR images were acquired 24 hours post treatment to assess the response of the tissue and its correlation to the extent of convection.
In order to obtain a wide range in volumes of distribution, the infusion times were varied between 17 to 60 minutes. 13 rats were treated with Carboplatin (4 mg/ml, 17 minutes infusion). In order to obtain a wide range in volumes of distributions, in 6 out of those, the composition viscosity was increased by adding sucrose to the solution prior to infusion (Carboplatin 4 mg/ml, sucrose concentration-12%).
Early assessment of tissue response was performed using diffusion-weighted and T2-weighted MR images. The diffusion-weighted images were obtained by acquiring conventional T2-weighted images with the addition of diffusion-weighting gradients that filter out the signal from high mobility water molecules and sensitize the MR images to molecular diffusion/mobility [Stejskal et al. supra]. Regions of accumulated liquids or severe necrosis appear dark in diffusion-weighted MRI, while regions of slow water accumulation, such as in the case of intracellular water accumulation or inflammation, appear brighter.
The diffusion-weighted and T2-weighted MR images were obtained by a General Electric™ 3.0 T MRI machine with 10.4M 1× operating system, gradients intensity of up to 4.3 Gauss/cm and line scan diffusion-weighted imaging [Gudbjartsson et al., “Line scan diffusion imaging”, Magn. Reson. Med. 36:509-519, 1996] acquisition software package. Specially designed animal volume coils of 5 cm diameter were used for data acquisition.
The T2-weighted fast spin echo (FSE) MR images were acquired with: 256×128 matrix, FOV=12×9 cm^2, TR=3000 ms, TE=90 ms, and 2 mm slices with 0.5 mm gap. […]

Consider `N.N.O=C([O-])C1(C(=O)[O-])CCC1.[Pt+2]` [Carboplatin], for which the “enhancement in diffusion-weighted MR images” value (cases of efficient convection, 24 hours post treatment) is “significant enhancement”. Turning to `CC(=O)O[C@H]1C(=O)[C@@]2(C)[C@H]([C@H](OC(=O)c3ccccc3)[C@]3(O)C[C@H](OC(=O)[C@H](O)[C@@H](NC(=O)c4ccccc4)c4ccccc4)C(C)=C1C3(C)C)[C@]1(OC(C)=O)CO[C@@H]1C[C@@H]2O` [Taxol®, Taxol], for the setting “rat, in vivo”, the “histology of en block-resected lesion from rat brain” value was “Severe damage covering most of the striatum is seen with widespread necrosis and early gliotic changes”; the tissue toxicity result is reported as “severe tissue toxicity”.

The record behind these values is patent US8391959B2, “Composition for improving efficiency of drug delivery” (Tel HaShomer Medical Research Infrastructure and Services …, priority 2004, dated 2013).
